How the values were obtained:
TAK1/TAB1 = TAK1/TAB1 (Homo sapiens, UniProt O43318); test: Inhibition of TAK1-TAB1 (unknown origin) by alphascreen assay in presence of ATP; assay type: protein-complex assay
[1] = biological target: Vascular endothelial growth factor receptor 2 (Homo sapiens, UniProt P35968); test: Inhibition of KDR autophosphorylation overexpressed in VEGF-stimulated human HEK293 cells; assay type: cell-based
[2] = Metabolic stability in human liver microsomes assessed as extraction ratio; assay type: ADME, Microsome; conditions: read-out: ERH
[3] = biological target: T1, Mitogen-activated protein kinase kinase kinase 7 (Homo sapiens, UniProt O43318); test: Inhibition of TAK1 in human HCT116 cells assessed as inhibition of TNF-alpha-stimulated JNK phosphorylation; assay type: cell-based, HCT-116
T1 sequence (O43318 whole entry): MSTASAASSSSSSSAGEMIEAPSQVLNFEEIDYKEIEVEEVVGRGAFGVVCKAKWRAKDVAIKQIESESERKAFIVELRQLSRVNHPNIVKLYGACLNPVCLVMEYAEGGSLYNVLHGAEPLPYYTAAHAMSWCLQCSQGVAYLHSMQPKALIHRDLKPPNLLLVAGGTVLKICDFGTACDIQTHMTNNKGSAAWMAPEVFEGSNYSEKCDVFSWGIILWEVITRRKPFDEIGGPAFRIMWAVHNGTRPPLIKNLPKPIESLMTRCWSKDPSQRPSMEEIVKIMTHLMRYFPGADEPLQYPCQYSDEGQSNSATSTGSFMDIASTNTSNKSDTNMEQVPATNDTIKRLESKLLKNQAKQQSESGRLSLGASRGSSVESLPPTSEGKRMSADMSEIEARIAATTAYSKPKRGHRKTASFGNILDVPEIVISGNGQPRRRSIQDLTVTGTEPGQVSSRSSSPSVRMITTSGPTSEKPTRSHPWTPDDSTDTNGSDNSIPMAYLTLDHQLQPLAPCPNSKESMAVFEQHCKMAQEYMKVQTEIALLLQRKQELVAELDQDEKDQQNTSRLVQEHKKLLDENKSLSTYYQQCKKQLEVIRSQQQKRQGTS

[4] = Metabolic stability in mouse liver microsomes assessed as extraction ratio; assay type: ADME, Microsome; conditions: read-out: ERH
Aurora kinase B = Aurora kinase B (Homo sapiens, UniProt Q96GD4); test: Inhibition of aurora B kinase in human HT-29 cells assessed as inhibition of histone H3 S10 phosphorylation; assay type: cell-based
Sequence of Aurora kinase B (Q96GD4 whole entry): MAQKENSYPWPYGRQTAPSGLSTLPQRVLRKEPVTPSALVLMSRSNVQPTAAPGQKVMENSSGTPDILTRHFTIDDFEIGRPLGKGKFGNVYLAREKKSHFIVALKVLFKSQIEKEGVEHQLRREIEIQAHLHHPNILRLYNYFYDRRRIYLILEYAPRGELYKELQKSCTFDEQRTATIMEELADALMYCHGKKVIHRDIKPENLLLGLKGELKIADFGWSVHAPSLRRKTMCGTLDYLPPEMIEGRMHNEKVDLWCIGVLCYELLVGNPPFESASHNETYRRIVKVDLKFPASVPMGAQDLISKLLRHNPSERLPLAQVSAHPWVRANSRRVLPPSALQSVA

[5] = Volume of distribution at steady state in mouse at 2 mg/kg, iv; assay type: ADME, organism-based; design: dose 2 mg/kg, route intravenous; conditions: in vivo, read-out: Vdss
[6] = AUC (0 to infinity) in mouse at 2 mg/kg, iv; assay type: ADME, organism-based; design: dose 2 mg/kg, route intravenous, time infinity; conditions: plasma
[7] = Half life in mouse at 2 mg/kg, iv; assay type: ADME, organism-based; design: dose 2 mg/kg, route intravenous; conditions: in vivo
[8] = Oral bioavailability in mouse at 100 mg/kg; assay type: ADME, organism-based; conditions: in vivo
[9] = AUC (0 to infinity) in mouse at 100 mg/kg, po; assay type: ADME, organism-based; design: time infinity, dose 100 mg/kg, route oral; conditions: plasma
[10] = AUC (0 to infinity) in mouse at 20 mg/kg, po; assay type: ADME, organism-based; design: time infinity, dose 20 mg/kg, route oral; conditions: plasma
[11] = Antitumor activity against human TOV21G cells xenografted in CD-1 nude mouse assessed as tumor growth inhibition at 100 mg/kg, sc qd administered for 14 days measured on day 15 relative to vehicle-treated control; assay type: functional; conditions: route subcutaneous, read-out: TGI
[12] = Oral bioavailability in mouse at 20 mg/kg; assay type: ADME, organism-based; conditions: in vivo
[13] = Cmax in mouse at 20 mg/kg, po; assay type: ADME, organism-based; design: dose 20 mg/kg, route oral; conditions: in vivo
[14] = Cmax in mouse at 100 mg/kg, po; assay type: ADME, organism-based; design: dose 100 mg/kg, route oral; conditions: in vivo
[15] = Clearance in mouse at 2 mg/kg, iv; assay type: ADME, organism-based; design: dose 2 mg/kg, route intravenous; conditions: in vivo
[16] = biological target: T1, Mitogen-activated protein kinase kinase kinase 7; test: Inhibition of TAK1 in human TOV21G cells assessed as inhibition of JNK phosphorylation
[17] = Drug metabolism in mouse liver microsomes assessed as M+176 formation; assay type: ADME, Microsome
[18] = AUC (0 to last) in mouse at 20 mg/kg, po; assay type: ADME, organism-based; design: time 0 - last, dose 20 mg/kg, route oral; conditions: plasma
Liver microsomes = test: Drug metabolism in human liver microsomes assessed as M+176 formation; assay type: ADME, Microsome
[19] = Tmax in mouse at 20 mg/kg, po; assay type: ADME, organism-based; design: dose 20 mg/kg, route oral; conditions: in vivo

Sequence of TAK1/TAB1 (Q15750 whole entry, one chain of several): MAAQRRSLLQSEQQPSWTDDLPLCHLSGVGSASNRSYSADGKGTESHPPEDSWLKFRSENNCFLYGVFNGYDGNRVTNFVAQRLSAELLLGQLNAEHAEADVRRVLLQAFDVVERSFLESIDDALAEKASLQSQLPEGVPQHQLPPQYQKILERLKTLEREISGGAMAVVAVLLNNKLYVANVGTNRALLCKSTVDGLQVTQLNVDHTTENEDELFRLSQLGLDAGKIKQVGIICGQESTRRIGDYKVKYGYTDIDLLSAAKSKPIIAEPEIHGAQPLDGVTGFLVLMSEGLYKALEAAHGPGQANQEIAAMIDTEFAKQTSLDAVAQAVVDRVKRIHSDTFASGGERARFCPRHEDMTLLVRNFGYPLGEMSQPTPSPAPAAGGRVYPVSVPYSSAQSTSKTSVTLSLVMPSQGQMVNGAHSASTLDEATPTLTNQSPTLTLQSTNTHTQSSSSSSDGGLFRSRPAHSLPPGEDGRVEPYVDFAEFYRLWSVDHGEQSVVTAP
Sequence of Vascular endothelial growth factor receptor 2 (P35968 whole entry): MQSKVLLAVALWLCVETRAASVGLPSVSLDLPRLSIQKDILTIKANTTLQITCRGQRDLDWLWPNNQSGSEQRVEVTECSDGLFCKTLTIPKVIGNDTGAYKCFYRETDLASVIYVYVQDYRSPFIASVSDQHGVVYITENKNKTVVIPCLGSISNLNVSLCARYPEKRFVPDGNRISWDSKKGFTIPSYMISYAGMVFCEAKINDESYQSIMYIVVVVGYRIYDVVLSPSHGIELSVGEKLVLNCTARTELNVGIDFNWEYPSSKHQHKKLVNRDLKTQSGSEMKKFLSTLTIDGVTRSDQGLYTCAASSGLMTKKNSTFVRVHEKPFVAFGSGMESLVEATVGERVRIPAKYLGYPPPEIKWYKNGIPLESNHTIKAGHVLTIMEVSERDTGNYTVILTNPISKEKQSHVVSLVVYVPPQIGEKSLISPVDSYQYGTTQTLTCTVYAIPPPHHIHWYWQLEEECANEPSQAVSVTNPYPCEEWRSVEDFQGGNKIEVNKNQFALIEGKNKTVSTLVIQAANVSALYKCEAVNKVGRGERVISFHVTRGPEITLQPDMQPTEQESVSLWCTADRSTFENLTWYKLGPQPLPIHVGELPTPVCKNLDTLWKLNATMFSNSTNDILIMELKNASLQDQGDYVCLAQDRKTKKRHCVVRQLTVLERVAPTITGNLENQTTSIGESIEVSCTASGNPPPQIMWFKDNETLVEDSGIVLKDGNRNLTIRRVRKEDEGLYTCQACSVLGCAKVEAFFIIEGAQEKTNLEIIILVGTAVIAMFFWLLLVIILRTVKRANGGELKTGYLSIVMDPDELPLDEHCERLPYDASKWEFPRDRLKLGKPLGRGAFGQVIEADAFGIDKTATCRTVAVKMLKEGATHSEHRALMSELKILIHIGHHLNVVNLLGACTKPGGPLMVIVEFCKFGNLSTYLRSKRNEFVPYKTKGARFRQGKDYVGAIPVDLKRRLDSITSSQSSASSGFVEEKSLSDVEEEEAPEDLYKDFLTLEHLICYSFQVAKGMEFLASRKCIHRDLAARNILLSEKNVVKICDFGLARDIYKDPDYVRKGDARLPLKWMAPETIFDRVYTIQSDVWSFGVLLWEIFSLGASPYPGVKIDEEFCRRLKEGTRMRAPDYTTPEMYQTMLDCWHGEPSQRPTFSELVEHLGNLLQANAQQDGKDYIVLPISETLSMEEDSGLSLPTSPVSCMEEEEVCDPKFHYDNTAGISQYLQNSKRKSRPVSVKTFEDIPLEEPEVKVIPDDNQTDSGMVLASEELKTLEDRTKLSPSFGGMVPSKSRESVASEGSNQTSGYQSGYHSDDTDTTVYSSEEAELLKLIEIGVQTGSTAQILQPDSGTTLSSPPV

Row | SMILES | IC50 (TAK1/TAB1) [nM] | IC50 [1] [nM] | IC50 [3] [nM] | IC50 (Aurora kinase B) [nM] | also measured
1 | Cc1ncc(-c2cnc(N)c3oc(-c4csc5cnccc45)cc23)s1 | 230 |  |  |  | 
2 | Nc1ncc(-c2ccoc2)c2cc(-c3csc4cnccc34)oc12 | 560 |  |  |  | 
3 | Nc1ncc(-c2cnn([C@H]3CC[C@H](O)CC3)c2)c2c(-c3cccnc3)c(-c3cccc4nnsc34)oc12 | 110 | 8200 | 130 | 6900 | hepatic extraction ratio [2]: 0.41; hepatic extraction ratio [4]: 0.48
4 | Nc1ncc(-c2cnn([C@H]3CC[C@H](O)CC3)c2)c2c(CF)c(-c3cccc4nnsc34)oc12 | 17 | 18300 | 45 | 1500 | hepatic extraction ratio [2]: 0.49; hepatic extraction ratio [4]: 0.43
5 | Nc1ncc(C2=CCNCC2)c2cc(-c3csc4cnccc34)oc12 | 23600 |  |  |  | 
6 | Cc1nn(C)c(C)c1-c1cnc(N)c2oc(-c3csc4cnccc34)cc12 | 23900 |  | 4400 |  | 
7 | Cc1ccc(-c2cnc(N)c3oc(-c4csc5cnccc45)cc23)o1 | 2100 |  |  |  | 
8 | Nc1ncc(-c2cnn([C@H]3CC[C@H](O)CC3)c2)c2c(Cl)c(-c3cccc4nnsc34)oc12 |  | > 20000 | 18 | 6500 | Vd [5]: 2.1 L/kg; AUC(0-inf) [6]: 1700 ng·h/mL; half-life [7]: 2.1 h; bioavailability [8]: 32%; hepatic extraction ratio [2]: 0.4; AUC(0-inf) [9]: 26800 ng·h/mL; hepatic extraction ratio [4]: 0.39; AUC(0-inf) [10]: 8770 ng·h/mL; inhibition in vivo at 100 mg/kg [11]: 62%; bioavailability [12]: 52%; Cmax [13]: 3.8 µM; Cmax [14]: 7.1 µM; clearance [15]: 20 mL/min/kg; IC50 [16]: 28 nM
9 | Cn1cnc(-c2cnc(N)c3oc(-c4csc5cnccc45)cc23)c1 | 12700 |  |  |  | 
10 | N#Cc1c(-c2cccc3nnsc23)oc2c(N)ncc(-c3cnn([C@H]4CC[C@H](O)CC4)c3)c12 | 160 | > 20000 | 17 | > 10000 | hepatic extraction ratio [2]: 0.38; hepatic extraction ratio [4]: 0.43
11 | Cc1ccc(-c2cnc(N)c3oc(-c4csc5cnccc45)cc23)s1 | 4600 |  |  |  | 
12 | Nc1ncc(-c2cnn([C@H]3CC[C@H](O)CC3)c2)c2cc(-c3cccc4cnsc34)oc12 |  |  |  |  | Vd [5]: 12 L/kg; AUC(0-inf) [6]: 299 ng·h/mL; half-life [7]: 3.3 h; AUC(0-inf) [10]: 821 ng·h/mL; bioavailability [12]: 27%; Cmax [13]: 1.1 µM; clearance [15]: 111 mL/min/kg
13 | Cn1cc(-c2cnc(N)c3oc(-c4csc5cnccc45)cc23)cn1 | 150 | 3400 | 190 | 3000 | 
14 | COc1nn(C)cc1-c1cnc(N)c2oc(-c3csc4cnccc34)cc12 | 600 | > 20000 | 1700 | > 20000 | 
15 | Cc1c(-c2cnc(N)c3oc(-c4csc5cnccc45)cc23)cnn1C | 4100 | 19900 | 3000 | 17400 | 
16 | CC(=O)N1CCC(n2cc(-c3cnc(N)c4oc(-c5csc6cnccc56)cc34)cn2)CC1 |  |  |  |  | Vd [5]: 2.5 L/kg; AUC(0-inf) [6]: 187 ng·h/mL; half-life [7]: 0.1 h; Drug metabolism [17]: Active; AUC(0-t) [18]: 21 ng·h/mL; Drug metabolism (Liver microsomes): Active; bioavailability [12]: 1%; Cmax [13]: 0.03 µM; clearance [15]: 178 mL/min/kg
17 | Cn1ccc(-c2cnc(N)c3oc(-c4csc5cnccc45)cc23)c1 | 4900 |  |  |  | 
18 | Nc1ncc(-c2cnn([C@H]3CC[C@H](O)CC3)c2)c2cc(-c3cccc4nnsc34)oc12 | 9 | 650 | 15 | 160 | Vd [5]: 4.1 L/kg; AUC(0-inf) [6]: 477 ng·h/mL; half-life [7]: 1.6 h; hepatic extraction ratio [2]: 0.48; hepatic extraction ratio [4]: 0.63; AUC(0-inf) [10]: 16000 ng·h/mL; Tmax [19]: 8 h; Cmax [13]: 7.8 µM; clearance [15]: 70 mL/min/kg
19 | Nc1ncc(-c2cscn2)c2cc(-c3csc4cnccc34)oc12 | 1400 |  |  |  | 
20 | Nc1ncc(-c2ccsc2)c2cc(-c3csc4cnccc34)oc12 | 2200 |  |  |  | 
21 | Cn1cc(-c2cnc(N)c3oc(-c4csc5cnccc45)cc23)c(C#N)n1 | 22800 |  | > 10000 |  | 
22 | Nc1ncc(-c2cccnc2)c2cc(-c3csc4cnccc34)oc12 | 3800 |  |  |  | 
23 | Nc1ncc(-c2ccccc2)c2cc(-c3csc4cnccc34)oc12 | 3200 |  |  |  | 
24 | Cc1nn(C)cc1-c1cnc(N)c2oc(-c3csc4cnccc34)cc12 | 3500 | > 20000 | 1000 | > 20000 | 
25 | Nc1ncc(-c2cnn([C@H]3CC[C@H](O)CC3)c2)c2c(C(F)F)c(-c3cccc4nnsc34)oc12 | 14 | > 20000 | 20 | 1700 | Vd [5]: 1 L/kg; AUC(0-inf) [6]: 3440 ng·h/mL; half-life [7]: 1.8 h; hepatic extraction ratio [2]: 0.48; hepatic extraction ratio [4]: 0.39; AUC(0-inf) [10]: 33700 ng·h/mL; bioavailability [12]: 98%; Cmax [13]: 18.6 µM; clearance [15]: 10 mL/min/kg
26 | COCC#Cc1cnc(N)c2oc(-c3csc4cnccc34)cc12 | 2900 |  |  |  | 
27 | Nc1ncc(-c2cnn([C@H]3CC[C@H](O)CC3)c2)c2c(-c3cncs3)c(-c3cccc4nnsc34)oc12 | 31 | 760 | 43 | 1700 | hepatic extraction ratio [2]: 0.55; hepatic extraction ratio [4]: 0.53

Reference: ChEMBL document CHEMBL2407065, “Discovery of 7-aminofuro[2,3-c]pyridine inhibitors of TAK1: optimization of kinase selectivity and pharmacokinetics” (Bioorg Med Chem Lett, 2013)
